Test results from patent US20240059700A1, “NOVEL DIACYLGLYCERIDE O-ACYLTRANSFERASE 2 INHIBITORS” (Merck Sharp & Dohme LLC, priority 2020, published 2024).

molecular target: human DGAT2 (hDGAT2) (Homo sapiens (Human), UniProt Q96PD7); assay: DGAT2 Enzymatic Activity Assay; assay type: biochemical; details: membrane prep of Sf-9 insect cells expressing hDGAT2; 13C18-triolein product by LC/MS/MS
Description: Sf-9 insect cells were maintained in Grace's insect cell culture medium with 10% heated-inactivated fetal bovine serum, 1% Pluronic F-68 and 0.14 μg/ml Kanamycine sulfate at 27° C. in a shaker incubator. After infection with untagged baculovirus expressing human DGAT2 (hDGAT2) at multiplicity of infection (MOI) 3 for 48 hours, cells were harvested. Cell pellets were suspended in buffer containing 10 mM Tris-HCl pH 7.5, 1 mM EDTA, 250 mM sucrose and Complete Protease Inhibitor Cocktail (Sigma Aldrich), and sonicated on ice. Cell debris were removed by centrifugation at 2000×g for 15 minutes. Membrane fractions were isolated by ultracentrifugation (100,000×g), resuspended in the same buffer, and frozen (−80° C.) for later use. The protein concentration was determined with the Pierce™ BCA Protein Assay Kit (Thermo Fisher Scientific). Expression of protein levels was analyzed by immunoblotting with rabbit anti-DGAT2 antibody (Abcam, ab102831) and donkey anti-rabbit IgG H&L Alexa Fluor® 647 (Abcam, ab150075) followed by detection using Typhoon FLA9000 (GE Healthcare).
LC/MS/MS analyses were performed using Thermal Fisher's LX4-TSQ Vantage system. This system consists of an Agilent binary high-performance liquid chromatography (HPLC) pumps and a TSQ Vantage triple quadrupole MS/MS instrument. For each sample, 2 μL samples from the top organic layer of in-plate liquid-liquid extraction were injected onto a Thermo Betabasic C4 column (2.1 mm×20 mm, 5 μm particle size). The samples were then eluted using the following conditions; mobile phase: Isopropanol: acetonitrile/10 mM ammonium formate=50/35/15 (v/v/v), flow rate: 0.8 mL/min, temperature: 25° C. Data was acquired in positive mode using a heated electrospray ionization (HESI) interface. The operational parameters for the TSQ Vantage MS/MS instrument were a spray voltage of 3000 V, capillary temperature of 280° C., vaporizer temperature 400° C., sheath gas 45 arbitrary unit, Aux gas 10 arbitrary units, S-lens 165 and collision gas 1.0 mTorr. […] (SRM) chromatograms of ^13C18-triolein (Q1: 920.8>Q3:621.3) and internal standard ^13C21-triolein (Q1: 923.8>Q3:617.3) were collected for 33 sec. The peak area was integrated by Xcalibur Quan software. The ratio between the ^13C18 triolein generated in the reaction and spiked in internal standard ^13C21-triolein was used to generate percentage inhibition and IC50 values. Compound percentage inhibition was calculated by the following formula: Inhibition %=1−[(compound response−low control)/(high control−low control)]×100%. Potent compounds were titrated and IC50 were calculated by 4 parameter sigmoidal curve fitting formula.
DGAT2 activity was determined by measuring the amount of enzymatic product ^13C18-triolein (^13C-1,2,3-Tri(cis-9-octadecenoyl)glycerol) using the membrane prep mentioned above. The assay was carried out in ABgene 384-well assay plates in a final volume of 25 μL at rt. The assay mixture contained the following: assay buffer (100 mM Tris·Cl, pH 7.0, 20 mM MgCl2, 5% ethanol), 25 μM of diolein, 5 μM of ^13C oleoyl-CoA and 8 ng/μL of DGAT2 membrane.

Chain of human DGAT2 (hDGAT2) (Q96PD7 whole entry): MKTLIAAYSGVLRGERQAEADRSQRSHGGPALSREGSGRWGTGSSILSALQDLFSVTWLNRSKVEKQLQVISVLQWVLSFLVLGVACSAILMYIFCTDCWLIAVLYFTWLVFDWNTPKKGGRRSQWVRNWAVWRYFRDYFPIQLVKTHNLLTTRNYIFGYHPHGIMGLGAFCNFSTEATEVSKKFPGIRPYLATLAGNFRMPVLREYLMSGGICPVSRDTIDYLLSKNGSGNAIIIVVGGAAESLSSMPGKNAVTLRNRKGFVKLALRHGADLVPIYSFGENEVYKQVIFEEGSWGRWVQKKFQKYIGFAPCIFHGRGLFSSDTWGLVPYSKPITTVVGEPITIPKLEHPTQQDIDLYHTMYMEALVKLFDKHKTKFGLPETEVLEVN

Row | SMILES | IC50 [nM]
1 | C[C@]1(NC(=O)c2cc3c(cn2)c(-c2cccc(OC(F)F)c2)cn3C2CCOCC2)CCS(=O)(=O)C1 [Example 82, (S)-3-(3-(difluoromethoxy)phenyl)-N-(3-methyl-1,1-dioxidotetrahydrothiophen-3-yl)-1-(tetrahydro-2H-pyran-4-yl)-1H-pyrrolo[3,2-c]pyridine-6-carboxamide] | 612
2 | C[C@]1(NC(=O)c2cnc3c(-c4cccc(OC(F)F)c4)nn(-c4ncc(F)cn4)c3c2)CCS(=O)(=O)C1 [Example 3, (S)-3-(3-(difluoromethoxy)phenyl)-1-(5-fluoropyrimidin-2-yl)-N-(3-methyl-1,1-dioxidotetrahydrothiophen-3-yl)-1H-pyrazolo[4,3-b]pyridine-6-carboxamide] | 57
3 | CC(C)n1nc(-c2cc(OC(F)F)ccc2F)c2ncc(C(=O)NC(C)(C)CN(C)C)cc21 [Example 55, 3-(5-(difluoromethoxy)-2-fluorophenyl)-N-(1-(dimethylamino)-2-methylpropan-2-yl)-1-isopropyl-1H-pyrazolo[4,3-b]pyridine-6-carboxamide] | 212
4 | CC1(NC(=O)c2cnc3c(-c4cccc(OC(F)F)c4)nn(C4CC4)c3c2)CS(=O)(=O)C1 [Example 30, 1-cyclopropyl-3-(3-(difluoromethoxy)phenyl)-N-(3-methyl-1,1-dioxidothietan-3-yl)-1H-pyrazolo[4,3-b]pyridine-6-carboxamide] | 99
5 | C[C@]1(NC(=O)c2cc3c(cn2)c(-c2cncc(OC(F)F)c2)nn3C2CCOCC2)CCS(=O)(=O)C1 [Example 79, (S)-3-(5-(difluoromethoxy)pyridin-3-yl)-N-(3-methyl-1,1-dioxidotetrahydrothiophen-3-yl)-1-(tetrahydro-2H-pyran-4-yl)-1H-pyrazolo[4,3-c]pyridine-6-carboxamide] | 10000
6 | CC(C)n1nc(-c2ccnc(OC(F)F)c2)c2ncc(C(=O)NC3(C)CS(=O)(=O)C3)cc21 [Example 100, 3-[2-(difluoromethoxy)-4-pyridyl]-1-isopropyl-N-(3-methyl-1,1-dioxo-thietan-3-yl)pyrazolo[4,3-b]pyridine-6-carboxamide] | 139
7 | CCOc1cc(-c2nn(C(C)C)c3cc(C(=O)N[C@@]4(C)CCC[C@H]4O)cnc23)c(F)cn1 [Example 57, 3-(2-ethoxy-5-fluoropyridin-4-yl)-N-((1S,2R)-2-hydroxy-1-methylcyclopentyl)-1-isopropyl-1H-pyrazolo[4,3-b]pyridine-6-carboxamide] | 15
8 | CC(C)n1nc(-c2cncc(C3CC3)c2)c2ncc(C(=O)NC3(C)CS(=O)(=O)C3)cc21 [Example 101, 3-(5-cyclopropyl-3-pyridyl)-1-isopropyl-N-(3-methyl-1,1-dioxo-thietan-3-yl)pyrazolo[4,3-b]pyridine-6-carboxamide] | 85
9 | CC(C)[C@H](NC(=O)c1cnc2c(-c3cncc(OC(F)F)c3)nn(C(C)C)c2c1)[C@H](C)O [Example 54, 3-(5-(difluoromethoxy)pyridin-3-yl)-N-((2S,3S)-2-hydroxy-4-methylpentan-3-yl)-1-isopropyl-1H-pyrazolo[4,3-b]pyridine-6-carboxamide] | 13
10 | CC(C)n1nc(-c2cccc(OC(F)F)c2)c2ncc(C(=O)NC3(CO)CCOCC3)cc21 [Example 74, 3-(3-(difluoromethoxy)phenyl)-N-(4-(hydroxymethyl)tetrahydro-2H-pyran-4-yl)-1-isopropyl-1H-pyrazolo[4,3-b]pyridine-6-carboxamide] | 64
11 | CC(C)(O)Cn1nc(-c2cccc(OC(F)F)c2)c2ncc(C(=O)NC3(C)CS(=O)(=O)C3)cc21 [Example 111, 3-(3-(difluoromethoxy)phenyl)-1-(2-hydroxy-2-methylpropyl)-N-(3-methyl-1,1-dioxidothietan-3-yl)-1H-pyrazolo[4,3-b]pyridine-6-carboxamide] | 22
12 | CC(C)n1nc(-c2cccc(OC(F)F)c2)c2c(C#N)cc(C(=O)NC3(C)CS(=O)(=O)C3)cc21 [Example 91, 4-cyano-3-(3-(difluoromethoxy)phenyl)-1-isopropyl-N-(3-methyl-1,1-dioxidothietan-3-yl)-1H-indazole-6-carboxamide] | 2
